Series [1] concerns Trypanosoma cruzi. Put plainly: Antitrypanosomal activity against Trypanosoma cruzi Y strain intracellular epimastigotes assessed as viability of intracellular epimastigote measured after 5 days. The format is functional, organism-based.
Series [2] concerns Trypanosoma cruzi. Put plainly: Antitrypanosomal activity against Trypanosoma cruzi Y strain amastigotes. The format is functional, organism-based.
Series [3] in a line: Toxicity in mouse assessed as lethal dose. As to conditions: in vivo.
The next series has as its system Leishmania infantum. Put plainly: Antileishmanial activity against promastigote form of Leishmania infantum infected in BALB/c mouse assessed as reduction in parasite growth at 2.5 mg/kg, po administered once for every two days for 10 days. Type of series: functional, organism-based.
A further series has as its system Macrophage. Put plainly: (§1) Cytotoxicity against BALB/c mouse macrophage assessed as cell viability measured after 48 hrs by MTT assay. Type of series: toxicity, cell-based. As to conditions: macrophage, 48 h. A general note: Formazan colour is commonly taken as a measure of viable cells.
Series [4] in a line: Selectivity index, ratio of CC50 for cytotoxicity against BALB/c mouse macrophages to IC50 for antileishmanial activity against promastigote form of Leishmania infantum infected in BALB/c mouse. Type of series: toxicity.
Series [5] deals with Trypanosoma cruzi. Briefly: Antitrypanosomal activity against Trypanosoma cruzi Y strain trypomastigotes. Type of series: functional, organism-based.
Series [6] can be described thus: Acute toxicity in Beagle dog assessed as lethal dose. As to conditions: in vivo. Details: species or system Canis lupus familiaris.
In another series the test system is Trypanosoma evansi. Briefly: Antitrypanosomal activity against Trypanosoma evansi. Type of series: functional, organism-based.
Series [7] can be described thus: as §1. As to conditions: BALB/c, mouse macrophages. The format is toxicity, cell-based.

The record followed here is ChEMBL document CHEMBL5335791, “Antiparasitic activity of ivermectin: Four decades of research into a "wonder drug"” (Eur J Med Chem, 2023).

By EC50 is commonly meant the concentration giving half of the maximal effect. What is called LD50 is the dose at which mortality reaches 50%. For orientation: IC50 means the concentration at which inhibition is half-maximal. Broadly, the CC50 is the concentration giving 50% cytotoxicity.

For IVERMECTIN, the half-maximal effective concentration (EC50) is 5.3 µM in the series on Trypanosoma cruzi [1], 0.3 µM with Trypanosoma cruzi [2] and 12.5 µM with Trypanosoma cruzi [5]. In addition, the median lethal dose (LD50) in [3] was determined as 0.2 mg/kg; in series [6], 80 mg/kg. Besides, the IC50 with Leishmania infantum was 3.64 µM; with Trypanosoma evansi, 13.8 µM. For the same compound, the 50% cytotoxic concentration (CC50) in the series with Macrophage stood at 428 µM. The “Ratio CC50/IC50” value in [4] is given as 117.
For the compound `C[C@@H]1[C@H](O)[C@@H](C)/C=C/C=C/C=C/C=C/C=C/C=C/C=C/[C@H](O[C@@H]2O[C@H](C)[C@@H](O)[C@H](N)[C@@H]2O)C[C@@H]2O[C@](O)(C[C@@H](O)C[C@@H](O)[C@H](O)CC[C@@H](O)C[C@@H](O)CC(=O)O[C@H]1C)C[C@H](O)[C@H]2C(=O)O` [AMPHOTERICIN B], the IC50 in the series with Leishmania infantum (Leishmania infantum) worked out at 0.12 µM. In addition, the CC50 at 48 h in [7] amounted to 1.06 µM. Moreover, in series [4] (BALB/c, mouse macrophages, read-out: Ratio CC50/IC50), the selectivity ratio was about 9.
